From patent publication US7576215B2, “Quinolines and pharmaceutical compositions thereof” (Wyeth, priority 2003, dated 2009) come the findings set out here.

A word on the melting point: it is the temperature, or range, at which the solid turns liquid. In turn, `FC(F)(F)c1cccc2c(-c3ccccc3)c(-c3ccccc3)cnc12` [Example 390, 3,4-DIPHENYL-8-(TRIFLUOROMETHYL)QUINOLINE] gave a melting point of 138 to 140 °C.

The compound `Oc1cccc(-c2c(-c3ccccc3)cnc3c(C(F)(F)F)cccc23)c1` [Example 391, 3-[3-PHENYL-8-(TRIFLUOROMETHYL)QUINOLIN-4-YL]PHENOL] registered a melting point of 123 °C.

Take `Oc1cc(-c2c(-c3ccccc3)cnc3c(C(F)(F)F)cccc23)ccc1Cl` [Example 392, 2-CHLORO-5-[3-PHENYL-8-(TRIFLUOROMETHYL)QUINOLIN-4-YL]PHENOL]: the melting point came to 252 °C.

The compound `COc1cc(-c2c(-c3ccccc3)cnc3c(C(F)(F)F)cccc23)ccc1Cl` [Example 393, 4-(4-CHLORO-3-METHOXYPHENYL)-3-PHENYL-8-(TRIFLUOROMETHYL)QUINOLINE] yielded a melting point of 172 to 174 °C.

For the compound `Nc1cccc(-c2c(-c3ccccc3)cnc3c(C(F)(F)F)cccc23)c1` [Example 395, {3-[3-PHENYL-8-(TRIFLUOROMETHYL)QUINOLIN-4-YL]PHENYL}AMINE], the melting point is 163 to 165 °C.

As to `O=C(O)Cc1ccc(COc2cccc(-c3c(-c4ccccc4)cnc4c(C(F)(F)F)cccc34)c2)cc1` [Example 398, [4-({3-[3-PHENYL-8-(TRIFLUOROMETHYL)QUINOLIN-4-YL]PHENOXY}METHYL)PHENYL]ACETIC ACID], the melting point is 122 °C.

As to `FC(F)(F)c1cccc2c(-c3ccccc3)c(Oc3ccccc3)cnc12` [Example 407, 3-PHENOXY-4-PHENYL-8-(TRIFLUOROMETHYL)QUINOLINE], the melting point stood at 122 °C.

As for `FC(F)(F)c1cccc2c(-c3ccccc3)c(Sc3ccccc3)cnc12` [Example 411, 4-PHENYL-3-(PHENYLTHIO)-8-(TRIFLUOROMETHYL)QUINOLINE], the melting point lay within 139 to 141 °C.

For the compound `Oc1ccc(F)c(-c2c(-c3ccccc3)cnc3c(C(F)(F)F)cccc23)c1` [Example 412, 4-FLUORO-3-[3-PHENYL-8-(TRIFLUOROMETHYL)QUINOLIN-4-YL]PHENOL], the melting point is 85 °C.

`Oc1cccc(-c2c(-c3ccccc3F)cnc3c(C(F)(F)F)cccc23)c1` [Example 458, 3-[3-(2-FLUOROPHENYL)-8-(TRIFLUOROMETHYL)QUINOLIN-4-YL]PHENOL]: the melting point was in the range of 186 to 187 °C.

On to `Cc1nc2c(C(F)(F)F)cccc2c(-c2ccccc2)c1C(=O)c1ccccc1` [Example 477, [2-METHYL-4-PHENYL-8-(TRIFLUOROMETHYL)QUINOLIN-3-YL](PHENYL)METHANONE], for which the melting point is 175 to 177 °C.

In turn, `COC(=O)c1ccc(COc2cccc(-c3c(C(=O)c4ccccc4)cnc4c(C(F)(F)F)cccc34)c2)c(OC)c1` [Example 507, METHYL-4-({3-[3-BENZOYL-8-(TRIFLUOROMETHYL)QUINOLIN-4-YL]PHENOXY}METHYL)-3-METHOXYBENZOATE] came in with a melting point of 60 to 63 °C.

Regarding `O=C(O)c1ccc(COc2cccc(-c3c(-c4ccccc4)cnc4c(C(F)(F)F)cccc34)c2)cc1` [Example 512, 4-({3-[3-PHENYL-8-(TRIFLUOROMETHYL)QUINOLIN-4-YL]PHENOXY}METHYL)BENZOIC ACID], the melting point fell in the range of 108 to 112 °C.

`COc1cc(C(=O)O)ccc1COc1cccc(-c2c(C(=O)c3ccccc3)cnc3c(C(F)(F)F)cccc23)c1` [Example 515, 4-({3-[3-BENZOYL-8-(TRIFLUOROMETHYL)QUINOLIN-4-YL]PHENOXY}METHYL)-3METHOXY-BENZOIC ACID] returned a melting point of 100 to 110 °C.

In turn, `Cc1ccccc1-c1cnc2c(C(F)(F)F)cccc2c1-c1cccc(NC(=O)Nc2ccccc2F)c1` [Example 573, N-(2-FLUOROPHENYL)-N′-{3-[3-(2-METHYLPHENYL)-8-(TRIFLUOROMETHYL)QUINOLIN-4-YL]PHENYL}UREA] yielded a melting point of 218 to 220 °C.
